Like-named read-outs stand apart in the source and are kept apart here.
Assays:
[1] = tested on: endothelial tube formation in co-cultures of ECFCs and ADSCs treated with VEGF; assay: cells; format: cell-based, human
HeLa cells = assay: cells; format: cell-based;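 on Hela CellCycMod PI 4N summarized IC50: value tracks stimulation of 4N DNA content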
DLD-1 = assay: cells; format: cell-based
SW480 = assay: cells; format: cell-based
HCT116 = assay: cells; format: cell-based
[2] = tested on: HCT116 cells treated with a GSK3β inhibitor; assay: cells; format: cell-based
Colo320 = assay: cells; format: cell-based
HT-29 = assay: cells; format: cell-based
RKO = assay: cells; format: cell-based
SNU-C1 = assay: cells; format: cell-based
[3] = tested on: ECFC/ADSC co-culture cell nuclei number

Structure (SMILES): O=C(Nc1ccc(Br)cc1)c1cc(Br)cc(Br)c1O [NCGC00159476-09]
- IC50/EC50, VEGF_ADSC\ECFC Angio CD31 TubeArea (assay number 2) [1]: 1.8138 µM
- IC50/EC50, Hela CellCycMod PI 2N (assay number 14) (HeLa cells; 2N): > 10 µM
- IC50/EC50, Hela CellCycMod PI 4N (assay number 16) (HeLa cells; 4N): > 10 µM
- IC50/EC50, Hela CellCycMod PI Cell Number (assay number 18) (HeLa cells; Cell Number): > 10 µM
- IC50/EC50, Hela CellCycMod PI MI (assay number 17) (HeLa cells; MI): > 10 µM
- IC50/EC50, Hela CellCycMod PI S Phase (assay number 15) (HeLa cells; S Phase): > 10 µM
- IC50/EC50, Basal_Viability ATP DLD-1 (assay number 23) (DLD-1; basal): 0.001 µM
- IC50/EC50, Basal_Viability ATP SW480 (assay number 24) (SW480; basal): 0.001 µM
- IC50/EC50, Basal_Viability ATP HCT116 (assay number 25) (HCT116; basal): 0.003 µM
- IC50/EC50, GSK3b inh pretreated_Viability ATP HCT116 (assay number 26) ([2]; GSK3b inh pretreated): 0.001 µM
- IC50/EC50, Basal_Viability ATP Colo 320 (assay number 27) (Colo320; basal): 0.003 µM
- IC50/EC50, Basal_Viability ATP HT-29 (assay number 28) (HT-29; basal): 0.001 µM
- IC50/EC50, Basal_Viability ATP RKO (assay number 29) (RKO; basal): 0.003 µM
- IC50/EC50, Basal_Viability ATP SNU-C1 (assay number 30) (SNU-C1; basal): 0.001 µM
- IC50/EC50, VEGF_ADSC\ECFC Angio Hoechst NucArea (assay number 3) [3]: > 10 µM

Structure (SMILES): CC(C)=CCOc1ccc(/C=C/C(=O)c2ccc(OCC=C(C)C)cc2OCC(=O)O)cc1 [NCGC00159481-03]
- VEGF_ADSC\ECFC Angio CD31 TubeArea IC50/EC50 [1]: > 10 µM
- Hela CellCycMod PI 2N IC50/EC50 (HeLa cells): > 10 µM
- Hela CellCycMod PI 4N IC50/EC50 (HeLa cells): > 10 µM
- Hela CellCycMod PI Cell Number IC50/EC50 (HeLa cells): > 10 µM
- Hela CellCycMod PI MI IC50/EC50 (HeLa cells): > 10 µM
- Hela CellCycMod PI S Phase IC50/EC50 (HeLa cells): > 10 µM
- Basal_Viability ATP DLD-1 IC50/EC50 (DLD-1): 5.3614 µM
- Basal_Viability ATP SW480 IC50/EC50 (SW480): 2.9193 µM
- Basal_Viability ATP HCT116 IC50/EC50 (HCT116): > 6.667 µM
- GSK3b inh pretreated_Viability ATP HCT116 IC50/EC50 [2]: 3.0351 µM
- Basal_Viability ATP Colo 320 IC50/EC50 (Colo320): 1.5527 µM
- Basal_Viability ATP HT-29 IC50/EC50 (HT-29): 5.3973 µM
- Basal_Viability ATP RKO IC50/EC50 (RKO): 5.5335 µM
- Basal_Viability ATP SNU-C1 IC50/EC50 (SNU-C1): 7.4428 µM
- VEGF_ADSC\ECFC Angio Hoechst NucArea IC50/EC50 [3]: > 10 µM

Structure (SMILES): CCc1oc2ccccc2c1C(=O)c1cc(I)c(O)c(I)c1 [NCGC00160408-03]
- VEGF_ADSC\ECFC Angio CD31 TubeArea IC50/EC50 [1]: 5.8547 µM
- Hela CellCycMod PI 2N IC50/EC50 (HeLa cells): > 10 µM
- Hela CellCycMod PI 4N IC50/EC50 (HeLa cells): > 10 µM
- Hela CellCycMod PI Cell Number IC50/EC50 (HeLa cells): > 10 µM
- Hela CellCycMod PI MI IC50/EC50 (HeLa cells): > 10 µM
- Hela CellCycMod PI S Phase IC50/EC50 (HeLa cells): > 10 µM
- Basal_Viability ATP DLD-1 IC50/EC50 (DLD-1): 0.003 µM
- Basal_Viability ATP SW480 IC50/EC50 (SW480): 0.001 µM
- Basal_Viability ATP HCT116 IC50/EC50 (HCT116): 0.003 µM
- GSK3b inh pretreated_Viability ATP HCT116 IC50/EC50 [2]: 0.001 µM
- Basal_Viability ATP Colo 320 IC50/EC50 (Colo320): 0.003 µM
- Basal_Viability ATP HT-29 IC50/EC50 (HT-29): 0.001 µM
- Basal_Viability ATP RKO IC50/EC50 (RKO): 0.003 µM
- Basal_Viability ATP SNU-C1 IC50/EC50 (SNU-C1): 0.001 µM
- VEGF_ADSC\ECFC Angio Hoechst NucArea IC50/EC50 [3]: > 10 µM

Structure (SMILES): O=C1C(I)=CC(=C(c2cc(I)c(O)c(I)c2)c2ccccc2C(=O)O)C=C1I [NCGC00161636-02]
- IC50 ([1]; read-out: VEGF_ADSC\ECFC Angio CD31 TubeArea summarized IC50): > 10 µM
- IC50 (HeLa cells; read-out: Hela CellCycMod PI 2N summarized IC50): > 10 µM
- IC50 (HeLa cells; read-out: Hela CellCycMod PI 4N summarized IC50): > 10 µM
- IC50 (HeLa cells; read-out: Hela CellCycMod PI Cell Number summarized IC50): > 10 µM
- IC50 (HeLa cells; read-out: Hela CellCycMod PI MI summarized IC50): > 10 µM
- IC50 (HeLa cells; read-out: Hela CellCycMod PI S Phase summarized IC50): > 10 µM
- IC50 (DLD-1; read-out: Basal_Viability ATP DLD-1 summarized IC50): 0.0132 µM
- IC50 (SW480; read-out: Basal_Viability ATP SW480 summarized IC50): 0.112 µM
- IC50 (HCT116; read-out: Basal_Viability ATP HCT116 summarized IC50): 0.384 µM
- IC50 ([2]; read-out: GSK3b inh pretreated_Viability ATP HCT116 summarized IC50): 0.054 µM
- IC50 (Colo320; read-out: Basal_Viability ATP Colo 320 summarized IC50): 0.312 µM
- IC50 (HT-29; read-out: Basal_Viability ATP HT-29 summarized IC50): 5.73 µM
- IC50 (RKO; read-out: Basal_Viability ATP RKO summarized IC50): 0.0373 µM
- IC50 (SNU-C1; read-out: Basal_Viability ATP SNU-C1 summarized IC50): 3.76 µM
- IC50 ([3]; read-out: VEGF_ADSC\ECFC Angio Hoechst NucArea summarized IC50): > 10 µM

Structure (SMILES): CO[C@@]12[C@H](COC(N)=O)C3=C(C(=O)C(C)=C(N)C3=O)N1C[C@@H]1N[C@@H]12 [NCGC00163468-05]
- VEGF_ADSC\ECFC Angio CD31 TubeArea IC50/EC50 [1]: 0.1019 µM
- Hela CellCycMod PI 2N IC50/EC50 (HeLa cells): 0.0133 µM
- Hela CellCycMod PI 4N IC50/EC50 (HeLa cells): > 10 µM
- Hela CellCycMod PI Cell Number IC50/EC50 (HeLa cells): 0.07733 µM
- Hela CellCycMod PI MI IC50/EC50 (HeLa cells): > 10 µM
- Hela CellCycMod PI S Phase IC50/EC50 (HeLa cells): 0.1428 µM
- Basal_Viability ATP DLD-1 IC50/EC50 (DLD-1): 5.6318 µM
- Basal_Viability ATP SW480 IC50/EC50 (SW480): 12.0548 µM
- Basal_Viability ATP HCT116 IC50/EC50 (HCT116): 13.6261 µM
- GSK3b inh pretreated_Viability ATP HCT116 IC50/EC50 [2]: > 20 µM
- Basal_Viability ATP Colo 320 IC50/EC50 (Colo320): 12.5546 µM
- Basal_Viability ATP HT-29 IC50/EC50 (HT-29): 2.5705 µM
- Basal_Viability ATP RKO IC50/EC50 (RKO): 0.9953 µM
- Basal_Viability ATP SNU-C1 IC50/EC50 (SNU-C1): 8.1272 µM
- VEGF_ADSC\ECFC Angio Hoechst NucArea IC50/EC50 [3]: 5.961 µM

Structure (SMILES): CCCCC(CC)CN=C(N)NC(N)=NCCCCCCN=C(N)NC(N)=NCC(CC)CCCC (stereo not drawn) [NCGC00178352-06]
- IC50/EC50, VEGF_ADSC\ECFC Angio CD31 TubeArea (assay number 2) [1]: 0.4078 µM
- IC50/EC50, Hela CellCycMod PI 2N (assay number 14) (HeLa cells): > 10 µM
- IC50/EC50, Hela CellCycMod PI 4N (assay number 16) (HeLa cells): > 10 µM
- IC50/EC50, Hela CellCycMod PI Cell Number (assay number 18) (HeLa cells): 0.0186 µM
- IC50/EC50, Hela CellCycMod PI MI (assay number 17) (HeLa cells): > 10 µM
- IC50/EC50, Hela CellCycMod PI S Phase (assay number 15) (HeLa cells): > 10 µM
- IC50/EC50, Basal_Viability ATP DLD-1 (assay number 23) (DLD-1): 0.0197 µM
- IC50/EC50, Basal_Viability ATP SW480 (assay number 24) (SW480): 0.3327 µM
- IC50/EC50, Basal_Viability ATP HCT116 (assay number 25) (HCT116): 0.7096 µM
- IC50/EC50, GSK3b inh pretreated_Viability ATP HCT116 (assay number 26) [2]: 0.3963 µM
- IC50/EC50, Basal_Viability ATP Colo 320 (assay number 27) (Colo320): 0.0041 µM
- IC50/EC50, Basal_Viability ATP HT-29 (assay number 28) (HT-29): 0.0302 µM
- IC50/EC50, Basal_Viability ATP RKO (assay number 29) (RKO): 0.2228 µM
- IC50/EC50, Basal_Viability ATP SNU-C1 (assay number 30) (SNU-C1): 0.0941 µM
- IC50/EC50, VEGF_ADSC\ECFC Angio Hoechst NucArea (assay number 3) [3]: > 10 µM

Structure (SMILES): O=[N+]([O-])c1ccc(Oc2ccc(N=C=S)cc2)cc1 [NCGC00182049-02]
- VEGF_ADSC\ECFC Angio CD31 TubeArea IC50/EC50 [1]: 3.7244 µM
- Hela CellCycMod PI 2N IC50/EC50 (HeLa cells; assay number 14, 2N): > 10 µM
- Hela CellCycMod PI S Phase IC50/EC50 (HeLa cells; assay number 15, S phase): > 10 µM
- Hela CellCycMod PI 4N IC50/EC50 (HeLa cells; assay number 16, 4N): > 10 µM
- Hela CellCycMod PI MI IC50/EC50 (HeLa cells; assay number 17, MI): > 10 µM
- Hela CellCycMod PI Cell Number IC50/EC50 (HeLa cells; assay number 18, cell number): > 10 µM
- Basal_Viability ATP DLD-1 IC50/EC50 (DLD-1; assay number 23, basal): 2.102 µM
- Basal_Viability ATP SW480 IC50/EC50 (SW480; assay number 24, basal): 1.634 µM
- Basal_Viability ATP HCT116 IC50/EC50 (HCT116; assay number 25, basal): 2.772 µM
- GSK3b inh pretreated_Viability ATP HCT116 IC50/EC50 ([2]; assay number 26, GSK3b inhibitor pretreated): 1.472 µM
- Basal_Viability ATP Colo 320 IC50/EC50 (Colo320; assay number 27, basal): 1.465 µM
- Basal_Viability ATP HT-29 IC50/EC50 (HT-29; assay number 28, basal): 1.0654 µM
- Basal_Viability ATP RKO IC50/EC50 (RKO; assay number 29, basal): 2.341 µM
- Basal_Viability ATP SNU-C1 IC50/EC50 (SNU-C1; assay number 30, basal): 4.3298 µM
- VEGF_ADSC\ECFC Angio Hoechst NucArea IC50/EC50 [3]: > 10 µM
